The values below come from PubChem BioAssay AID1259407 (Chemical Carcinogenesis Research Information System (CCRIS), 2018).

The test system of this series is CCRIS mutagenicity, Ames/micronucleus/aberration tests. Description: CCRIS mutagenicity studies.
Where [1] appears, read: Test System: AMES SALMONELLA TYPHIMURIUM, Strain/Indicator: TA98, Metabolic Activation: NONE, Method: PREINCUBATION
[2] abbreviates: Test System: AMES SALMONELLA TYPHIMURIUM, Strain/Indicator: TA100, Metabolic Activation: NONE, Method: PREINCUBATION
Setting [3] is: Test System: AMES SALMONELLA TYPHIMURIUM, Strain/Indicator: TA1538, Metabolic Activation: NONE, Method: STANDARD PLATE.
The mark [4] stands for this setting: Test System: AMES SALMONELLA TYPHIMURIUM, Strain/Indicator: TA1538, Metabolic Activation: RAT, LIVER, S-9, AROCLOR 1254, Method: STANDARD PLATE.

Activity calls are given as the source filed them. The rule behind the calls is not given here.

With `Nc1ccc(Cl)cc1[N+](=O)[O-]`, the mutagenic call is “inactive; negative; precipitation occurred at 252 ug/ml” (End Point: IN VITRO CHROMOSOMAL ABERRATIONS, Test System: CHINESE HAMSTER OVARY CELLS, Metabolic Activation: NONE); “active; positive; precipitation occurred at all doses” (End Point: IN VITRO CHROMOSOMAL ABERRATIONS, Test System: CHINESE HAMSTER OVARY CELLS, Metabolic Activation: RAT, LIVER, S-9, AROCLOR 1254); “inactive; negative” (Test System: AMES SALMONELLA TYPHIMURIUM, Strain/Indicator: TA98(NR), Metabolic Activation: NONE, Method: STANDARD PLATE); “inactive; negative” under setting [1]; “active; positive” (Test System: AMES SALMONELLA TYPHIMURIUM, Strain/Indicator: TA98, Metabolic Activation: RAT, LIVER, S-9, KANECHLOR 500, Method: PREINCUBATION); “inactive; negative” under setting [2]. The mutagenic call under setting [3] is “active; positive”; the mutagenic call under setting [4] is “active; positive”; the mutagenic call (Test System: AMES SALMONELLA TYPHIMURIUM, Strain/Indicator: YG1020, Metabolic Activation: NONE, Method: STANDARD PLATE) was “active; positive”; the mutagenic call (Test System: AMES SALMONELLA TYPHIMURIUM, Strain/Indicator: YG1021, Metabolic Activation: NONE, Method: STANDARD PLATE) was “active; positive”; the mutagenic call (Test System: AMES SALMONELLA TYPHIMURIUM, Strain/Indicator: YG1024, Metabolic Activation: NONE, Method: STANDARD PLATE) was “active; positive”.

On to `Nc1ccc(O)c([N+](=O)[O-])c1`, for which the mutagenic call (Test System: AMES SALMONELLA TYPHIMURIUM, Strain/Indicator: TA97, Metabolic Activation: HAMSTER, LIVER, S-9, AROCLOR 1254 (10%), Method: PREINCUBATION) is “inactive; negative”; the mutagenic call (Test System: AMES SALMONELLA TYPHIMURIUM, Strain/Indicator: TA97, Metabolic Activation: NONE, Method: PREINCUBATION) is “inactive; negative”; the mutagenic call (Test System: AMES SALMONELLA TYPHIMURIUM, Strain/Indicator: TA97, Metabolic Activation: RAT, LIVER, S-9, AROCLOR 1254 (10%), Method: PREINCUBATION) was “inactive; negative”; the mutagenic call (Test System: AMES SALMONELLA TYPHIMURIUM, Strain/Indicator: TA98, Metabolic Activation: HAMSTER, LIVER, S-9, AROCLOR 1254 (10%), Method: PREINCUBATION) is “inactive; negative”; the mutagenic call under setting [1] was “active; positive”; the mutagenic call (Test System: AMES SALMONELLA TYPHIMURIUM, Strain/Indicator: TA98, Metabolic Activation: NONE, Method: STANDARD PLATE) was “inactive; negative”. Further, the mutagenic call (Test System: AMES SALMONELLA TYPHIMURIUM, Strain/Indicator: TA98, Metabolic Activation: RAT, LIVER, S-9, AROCLOR 1254 (10%), Method: PREINCUBATION) was “inactive; negative”; the mutagenic call (Test System: AMES SALMONELLA TYPHIMURIUM, Strain/Indicator: TA98, Metabolic Activation: RAT, LIVER, S-9, AROCLOR 1254, Method: STANDARD PLATE) is “inactive; negative”; the mutagenic call (Test System: AMES SALMONELLA TYPHIMURIUM, Strain/Indicator: TA100, Metabolic Activation: HAMSTER, LIVER, S-9, AROCLOR 1254 (10%), Method: PREINCUBATION) was “inactive; negative”; the mutagenic call under setting [2] was “inactive; negative”; the mutagenic call (Test System: AMES SALMONELLA TYPHIMURIUM, Strain/Indicator: TA100, Metabolic Activation: NONE, Method: STANDARD PLATE) was “inactive; negative”; the mutagenic call (Test System: AMES SALMONELLA TYPHIMURIUM, Strain/Indicator: TA100, Metabolic Activation: RAT, LIVER, S-9, AROCLOR 1254 (10%), Method: PREINCUBATION) is “inactive; negative”. Also, the mutagenic call by setting is: (Test System: AMES SALMONELLA TYPHIMURIUM, Strain/Indicator: TA100, Metabolic Activation: RAT, LIVER, S-9, AROCLOR 1254, Method: STANDARD PLATE) “inactive; negative”; (Test System: AMES SALMONELLA TYPHIMURIUM, Strain/Indicator: TA1535, Metabolic Activation: HAMSTER, LIVER, S-9, AROCLOR 1254 (10%), Method: PREINCUBATION) “inactive; negative”; (Test System: AMES SALMONELLA TYPHIMURIUM, Strain/Indicator: TA1535, Metabolic Activation: NONE, Method: PREINCUBATION) “inactive; negative”; (Test System: AMES SALMONELLA TYPHIMURIUM, Strain/Indicator: TA1535, Metabolic Activation: NONE, Method: STANDARD PLATE) “inactive; negative”; (Test System: AMES SALMONELLA TYPHIMURIUM, Strain/Indicator: TA1535, Metabolic Activation: RAT, LIVER, S-9, AROCLOR 1254 (10%), Method: PREINCUBATION) “inactive; negative”; (Test System: AMES SALMONELLA TYPHIMURIUM, Strain/Indicator: TA1535, Metabolic Activation: RAT, LIVER, S-9, AROCLOR 1254, Method: STANDARD PLATE) “inactive; negative”. Moreover, the mutagenic call runs as follows: (Test System: AMES SALMONELLA TYPHIMURIUM, Strain/Indicator: TA1537, Metabolic Activation: NONE, Method: STANDARD PLATE) “inactive; negative”; (Test System: AMES SALMONELLA TYPHIMURIUM, Strain/Indicator: TA1537, Metabolic Activation: RAT, LIVER, S-9, AROCLOR 1254, Method: STANDARD PLATE) “inactive; negative”; under setting [3], “inactive; negative”; under setting [4], “inactive; negative”; (Test System: E. COLI, Strain/Indicator: WP2 UVRA, Metabolic Activation: HAMSTER, LIVER, S-9, AROCLOR 1254, Method: STANDARD PLATE) “inactive; negative”; (Test System: E. COLI, Strain/Indicator: WP2 UVRA, Metabolic Activation: HAMSTER, LIVER, S-9, Method: STANDARD PLATE) “inactive; negative”. The mutagenic call by setting is: (Test System: E. COLI, Strain/Indicator: WP2 UVRA, Metabolic Activation: MOUSE, LIVER, S-9, AROCLOR 1254, Method: STANDARD PLATE) “inactive; negative”; (Test System: E. COLI, Strain/Indicator: WP2 UVRA, Metabolic Activation: MOUSE, LIVER, S-9, Method: STANDARD PLATE) “inactive; negative”; (Test System: E. COLI, Strain/Indicator: WP2 UVRA, Metabolic Activation: NONE, Method: STANDARD PLATE) “inactive; negative”; (Test System: E. COLI, Strain/Indicator: WP2 UVRA, Metabolic Activation: RAT, LIVER, S-9, AROCLOR 1254, Method: STANDARD PLATE) “inactive; negative”; (Test System: E. COLI, Strain/Indicator: WP2 UVRA, Metabolic Activation: RAT, LIVER, S-9, Method: STANDARD PLATE) “inactive; negative”; (Test System: MOUSE LYMPHOMA, Strain/Indicator: L5178Y (TK+/TK-), Metabolic Activation: NONE, Method: SUSPENSION/PLATE) “active; positive”. Besides, the mutagenic call (Test System: MOUSE LYMPHOMA, Strain/Indicator: L5178Y (TK+/TK-), Metabolic Activation: RAT, LIVER, S-9, AROCLOR 1254, Method: SUSPENSION/PLATE) is “active; positive”.

With `Cc1cc2c(c3ccc4c(O)c(O)ccc4c13)CCC2=O`, the mutagenic call by setting is: (Test System: AMES SALMONELLA TYPHIMURIUM, Strain/Indicator: TA100, Metabolic Activation: RAT, LIVER, MICROSOMES, 15,16-DIHYDRO-11-METHYL-17(H)-CYCLOPENTA[A] PHENANTHREN-17-ONE, Method: STANDARD PLATE) “inactive; negative”; (Test System: AMES SALMONELLA TYPHIMURIUM, Strain/Indicator: TA100, Metabolic Activation: RAT, LIVER, MICROSOMES, BENZO[A]PYRENE, Method: STANDARD PLATE) “active; positive”; (Test System: AMES SALMONELLA TYPHIMURIUM, Strain/Indicator: TA100, Metabolic Activation: RAT, LIVER, MICROSOMES, CLOFIBRATE, Method: STANDARD PLATE) “inactive; negative”; (Test System: AMES SALMONELLA TYPHIMURIUM, Strain/Indicator: TA100, Metabolic Activation: RAT, LIVER, MICROSOMES, DEXAMETHASONE, Method: STANDARD PLATE) “inactive; negative”; (Test System: AMES SALMONELLA TYPHIMURIUM, Strain/Indicator: TA100, Metabolic Activation: RAT, LIVER, MICROSOMES, ISONIAZID, Method: STANDARD PLATE) “inactive; negative”; (Test System: AMES SALMONELLA TYPHIMURIUM, Strain/Indicator: TA100, Metabolic Activation: RAT, LIVER, MICROSOMES, PHENOBARBITONE, Method: STANDARD PLATE) “inactive; negative”. Besides, the mutagenic call (Test System: AMES SALMONELLA TYPHIMURIUM, Strain/Indicator: TA100, Metabolic Activation: RAT, LIVER, MICROSOMES, Method: STANDARD PLATE) is “inactive; negative”.
